The target in one series is T1, human GIP receptor (Homo sapiens, UniProt P48546).
T1 construct: expressed in transfected cells; host or cells: HEK-293
T1 sequence (P48546 22-466): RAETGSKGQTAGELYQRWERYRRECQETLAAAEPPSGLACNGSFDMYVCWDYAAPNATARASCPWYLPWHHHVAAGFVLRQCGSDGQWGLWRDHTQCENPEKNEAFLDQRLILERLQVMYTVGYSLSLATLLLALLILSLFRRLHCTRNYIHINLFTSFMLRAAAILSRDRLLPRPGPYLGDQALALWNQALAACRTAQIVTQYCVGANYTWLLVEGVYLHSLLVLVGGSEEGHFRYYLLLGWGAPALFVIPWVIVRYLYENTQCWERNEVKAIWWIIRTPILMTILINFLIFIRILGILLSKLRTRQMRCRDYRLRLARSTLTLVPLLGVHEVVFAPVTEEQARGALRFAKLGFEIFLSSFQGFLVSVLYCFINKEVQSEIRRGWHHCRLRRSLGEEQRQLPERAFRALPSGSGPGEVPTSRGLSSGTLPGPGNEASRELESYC
Description: cAMP response of HEK-293 cells stably expressing human GIP receptor (HTRF). In kind it is cell-based. Particulars: Table 6; read-out: EC50 hGIP-R. How it is done: (§1) For preparation, cells were split into T175 culture flasks and grown overnight to near confluency in medium (DMEM/10% FBS). Medium was then removed and cells washed with PBS lacking calcium and magnesium, followed by proteinase treatment with accutase (Sigma-Aldrich cat. no. A6964). Detached cells were washed and resuspended in assay buffer (1×HBSS; 20 mM HEPES, 0.1% BSA, 2 mM IBMX) and cellular density determined. They were then diluted to 400000 cells/ml and 25 μl-aliquots dispensed into the wells of 96-well plates. For measurement, 25 μl of test compound in assay buffer was added to the wells, followed by incubation for 30 minutes at room temperature. […] Potencies of peptidic compounds at the GLP-1, glucagon and GIP receptors were determined by exposing cells expressing human glucagon receptor (hGlucagon R), human GIP receptor (hGIP-R) or human GLP-1 receptor (hGLP-1R) to the listed compounds at increasing concentrations and measuring the formed cAMP as described in Methods.
On the technique in general: In TR-FRET formats the signal depends on donor and acceptor labels being close together.

In a further series the target is T2, human GLP-1 receptor (Homo sapiens, UniProt P43220).
T2 construct: expressed in transfected cells; host or cells: HEK-293
T2 sequence (P43220 24-463): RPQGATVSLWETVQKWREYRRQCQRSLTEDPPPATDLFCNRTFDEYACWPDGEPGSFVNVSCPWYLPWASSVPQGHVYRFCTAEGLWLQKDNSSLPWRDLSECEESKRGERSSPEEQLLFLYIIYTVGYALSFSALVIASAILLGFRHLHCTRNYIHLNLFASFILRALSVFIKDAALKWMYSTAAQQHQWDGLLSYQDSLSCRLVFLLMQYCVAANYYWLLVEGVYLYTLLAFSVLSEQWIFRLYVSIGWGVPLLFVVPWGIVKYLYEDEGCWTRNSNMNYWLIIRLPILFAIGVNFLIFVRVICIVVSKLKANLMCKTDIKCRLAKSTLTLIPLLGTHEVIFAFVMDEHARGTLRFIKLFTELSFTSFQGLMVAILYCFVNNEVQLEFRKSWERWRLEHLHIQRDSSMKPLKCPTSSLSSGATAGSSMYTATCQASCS
The series can be described thus: cAMP response of HEK-293 cells stably expressing human GLP-1 receptor (HTRF). In kind it is cell-based. The conditions noted are these: Table 6; read-out: EC50 hGLP-1R. The procedure, abridged:
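HEK-293 cells stably expressing the receptor were taken up in HBSS/20 mM HEPES/0.1% BSA with 2 mM IBMX at 400000 cells/ml. They were exposed to increasing concentrations of peptide for 30 minutes at room temperature, and formed cAMP was measured by HTRF.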

The target in another series is T3, human glucagon receptor (Homo sapiens, UniProt P47871).
T3 construct: expressed in transfected cells; host or cells: HEK-293
T3 sequence (P47871 26-477): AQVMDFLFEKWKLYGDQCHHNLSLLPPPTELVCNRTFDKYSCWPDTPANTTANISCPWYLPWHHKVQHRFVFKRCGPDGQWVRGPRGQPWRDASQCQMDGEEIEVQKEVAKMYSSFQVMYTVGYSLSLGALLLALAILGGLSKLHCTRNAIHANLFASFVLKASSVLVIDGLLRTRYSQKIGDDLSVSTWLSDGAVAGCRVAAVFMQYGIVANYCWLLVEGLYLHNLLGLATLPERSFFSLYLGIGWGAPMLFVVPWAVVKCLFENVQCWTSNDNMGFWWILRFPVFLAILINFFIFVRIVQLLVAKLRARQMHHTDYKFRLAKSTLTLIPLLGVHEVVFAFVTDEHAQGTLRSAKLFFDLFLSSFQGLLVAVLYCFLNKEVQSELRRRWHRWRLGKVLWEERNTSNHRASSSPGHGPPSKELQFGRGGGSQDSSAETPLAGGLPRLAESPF
Description: cAMP response of HEK-293 cells stably expressing human glucagon receptor (HTRF). In kind it is cell-based. Particulars: Table 6; read-out: EC50 hGlucagon-R. How it is done:
as §1

A short description of series [1]: Solubility testing in buffer (HPLC-UV). In kind it is physicochemical. How it is done:
Prior to the testing of solubility and stability of a peptide batch, its purity (HPLC-UV) was determined. […] Therefore, solutions from solid samples were prepared in different buffer systems with a concentration of 10 mg/mL compound based on the previously determined % purity. HPLC-UV was performed after 2 h of gentle agitation from the supernatant, which was obtained by 20 min of centrifugation at 4500 rpm. […] This analysis also served as starting point (t0) for the stability testing.

The nature of series [2]: Stability testing in solution, 7 days at 40° C. (HPLC-UV). In kind it is physicochemical. How it is done:
After that time course, the sample was centrifuged for 20 min at 4500 rpm and 0.2 μL of the supernatant were analysed with HPLC-UV.
For determination of the amount of the remaining peptide, the peak areas of the target compound at t0 and t7 were compared, resulting in “% remaining peptide”, following the equation % remaining peptide=[(peak area peptide t7)×100]/peak area peptide t0.
The stability is expressed as “% remaining peptide”.

As usually defined, the EC50 is the concentration needed to bring the measured effect to its halfway point. Usually solubility stands for the concentration that dissolves in the medium under given conditions.

Structures are written as SMILES. Where two headings read alike, the source gives them in different places.

`CCCCCCCCCCCCCCCC(=O)N[C@@H](CCC(=O)N[C@@H](CCC(=O)NCCCC[C@H](NC(=O)[C@H](CCC(N)=O)NC(=O)[C@H](CCCCN)NC(=O)[C@H](CO)NC(=O)[C@H](CC(C)C)NC(=O)[C@H](CC(=O)O)NC(=O)[C@H](CO)NC(=O)[C@@H](NC(=O)[C@H](Cc1ccccc1)NC(=O)[C@@H](NC(=O)CNC(=O)[C@H](CCC(N)=O)NC(=O)[C@@H](CO)NC(=O)[C@@H](N)Cc1c[nH]cn1)[C@@H](C)O)[C@@H](C)O)C(=O)N[C@@H](CCC(=O)O)C(=O)N[C@@H](CCC(=O)O)C(=O)N[C@@H](CCC(=O)O)C(=O)N[C@@H](C)C(=O)N[C@@H](C)C(=O)N[C@@H](CCCNC(=N)N)C(=O)N[C@@H](CC(C)C)C(=O)N[C@@H](Cc1ccccc1)C(=O)N[C@H](C(=O)N[C@@H](CCC(=O)O)C(=O)N[C@@H](Cc1c[nH]c2ccccc12)C(=O)N[C@@H](CC(C)C)C(=O)NC(C)(C)C(=O)N[C@@H](C)C(=O)NCC(=O)NCC(=O)N1CCC[C@H]1C(=O)N[C@@H](CO)C(=O)N[C@@H](CO)C(=O)NCC(=O)N[C@@H](C)C(=O)N1CCC[C@H]1C(=O)N1CCC[C@H]1C(=O)N1CCC[C@H]1C(=O)N[C@@H](CO)C(N)=O)[C@@H](C)CC)C(=O)O)C(=O)O` [SEQ ID NO: 16, H-dSer-Q-G-T-F-T-S-D-L-S-K-Q-K(γE-γE-x53)-E-E-E-A-A-R-L-F-I-E-W-L-Aib-A-G-G-P-S-S-G-A-P-P-P-S-NH2]: the EC50 at human GIP receptor was found to be 7.78 nM; on human GLP-1 receptor, 0.0018 nM; on human glucagon receptor, 0.0354 nM.
In the case of `CCCCCCCCCCCCCCCC(=O)N[C@@H](CCC(=O)NCCCC[C@H](NC(=O)[C@H](CCC(N)=O)NC(=O)[C@H](CCCCN)NC(=O)[C@H](CO)NC(=O)[C@H](CC(C)C)NC(=O)[C@H](CC(=O)O)NC(=O)[C@H](CO)NC(=O)[C@@H](NC(=O)[C@H](Cc1ccccc1)NC(=O)[C@@H](NC(=O)CNC(=O)[C@H](CCC(N)=O)NC(=O)[C@@H](CO)NC(=O)[C@@H](N)Cc1c[nH]cn1)[C@@H](C)O)[C@@H](C)O)C(=O)N[C@@H](CC(=O)O)C(=O)N[C@@H](CCC(=O)O)C(=O)N[C@@H](CCC(=O)O)C(=O)N[C@@H](C)C(=O)N[C@@H](C)C(=O)N[C@@H](CCCNC(=N)N)C(=O)N[C@@H](CC(C)C)C(=O)N[C@@H](Cc1ccccc1)C(=O)N[C@H](C(=O)N[C@@H](CCC(=O)O)C(=O)N[C@@H](Cc1c[nH]c2ccccc12)C(=O)N[C@@H](CC(C)C)C(=O)NC(C)(C)C(=O)N[C@@H](C)C(=O)NCC(=O)NCC(=O)N1CCC[C@H]1C(=O)N[C@@H](CO)C(=O)N[C@@H](CO)C(=O)NCC(=O)N[C@@H](C)C(=O)N1CCC[C@H]1C(=O)N1CCC[C@H]1C(=O)N1CCC[C@H]1C(=O)N[C@@H](CO)C(N)=O)[C@@H](C)CC)C(=O)O` [SEQ ID NO: 14, H-dSer-Q-G-T-F-T-S-D-L-S-K-Q-K(γE-x53)-D-E-E-A-A-R-L-F-I-E-W-L-Aib-A-G-G-P-S-S-G-A-P-P-P-S-NH2], the solubility at 2 h in series [1] (pH 4.5, target concentration 10 mg/ml, read-out: solubility pH 4.5) was above 8000 µg/mL; in series [1] (pH 7.4, target concentration 10 mg/ml, read-out: solubility pH 7.4), above 8000 µg/mL. For the same compound, the “Stability pH 4.5” value in series [2] (pH 4.5, 7 days at 40° C. in solution) worked out at 94.7 % remaining peptide. The “Stability pH 7.4” value in series [2] (pH 7.4, 7 days at 40° C. in solution) amounted to 96.3 % remaining peptide. The EC50 worked out at 5.36 nM at human GIP receptor, 0.0021 nM on human GLP-1 receptor and 0.0247 nM on human glucagon receptor.
For `CCCCCCCCCCCCCCCC(=O)N[C@@H](CCC(=O)N[C@@H](CCC(=O)NCCCC[C@H](NC(=O)[C@H](CCC(N)=O)NC(=O)[C@H](CCCCN)NC(=O)[C@H](CO)NC(=O)[C@H](CC(C)C)NC(=O)[C@H](CC(=O)O)NC(=O)[C@H](CO)NC(=O)[C@@H](NC(=O)[C@H](Cc1ccccc1)NC(=O)[C@@H](NC(=O)CNC(=O)[C@H](CCC(N)=O)NC(=O)[C@H](CO)NC(=O)[C@@H](N)Cc1c[nH]cn1)[C@@H](C)O)[C@@H](C)O)C(=O)N[C@@H](CC(=O)O)C(=O)N[C@@H](CCC(=O)O)C(=O)N[C@@H](CCC(=O)O)C(=O)N[C@@H](C)C(=O)N[C@@H](C)C(=O)N[C@@H](CCCNC(=N)N)C(=O)N[C@@H](CC(C)C)C(=O)N[C@@H](Cc1ccccc1)C(=O)N[C@H](C(=O)N[C@@H](CCC(=O)O)C(=O)N[C@@H](Cc1c[nH]c2ccccc12)C(=O)N[C@@H](CC(C)C)C(=O)NC(C)(C)C(=O)N[C@@H](C)C(=O)NCC(=O)NCC(=O)N1CCC[C@H]1C(=O)N[C@@H](CO)C(=O)N[C@@H](CO)C(=O)NCC(=O)N[C@@H](C)C(=O)N1CCC[C@H]1C(=O)N1CCC[C@H]1C(=O)N1CCC[C@H]1C(=O)N[C@@H](CO)C(N)=O)[C@@H](C)CC)C(=O)O)C(=O)O` [SEQ ID NO: 11, H-S-Q-G-T-F-T-S-D-L-S-K-Q-K(γE-γE-x53)-D-E-E-A-A-R-L-F-I-E-W-L-Aib-A-G-G-P-S-S-G-A-P-P-P-S-NH2], the EC50 was determined as 0.56 nM at human GIP receptor, 0.0012 nM at human GLP-1 receptor and 0.0051 nM on human glucagon receptor.
The corresponding values for `CCCCCCCCCCCCCCCCCC(=O)N[C@@H](CCC(=O)NCCCC[C@H](NC(=O)[C@H](CCC(N)=O)NC(=O)[C@H](CCCCN)NC(=O)[C@H](CO)NC(=O)[C@H](CC(C)C)NC(=O)[C@H](CC(=O)O)NC(=O)[C@H](CO)NC(=O)[C@@H](NC(=O)[C@H](Cc1ccccc1)NC(=O)[C@@H](NC(=O)CNC(=O)[C@H](CCC(N)=O)NC(=O)[C@@H](CO)NC(=O)[C@@H](N)Cc1c[nH]cn1)[C@@H](C)O)[C@@H](C)O)C(=O)N[C@@H](CC(=O)O)C(=O)N[C@@H](CCC(=O)O)C(=O)N[C@@H](CCC(=O)O)C(=O)N[C@@H](C)C(=O)N[C@@H](C)C(=O)N[C@@H](CCCNC(=N)N)C(=O)N[C@@H](CC(C)C)C(=O)N[C@@H](Cc1ccccc1)C(=O)N[C@H](C(=O)N[C@@H](CCC(=O)O)C(=O)N[C@@H](Cc1c[nH]c2ccccc12)C(=O)N[C@@H](CC(C)C)C(=O)NC(C)(C)C(=O)N[C@@H](C)C(=O)NCC(=O)NCC(=O)N1CCC[C@H]1C(=O)N[C@@H](CO)C(=O)N[C@@H](CO)C(=O)NCC(=O)N[C@@H](C)C(=O)N1CCC[C@H]1C(=O)N1CCC[C@H]1C(=O)N1CCC[C@H]1C(=O)N[C@@H](CO)C(N)=O)[C@@H](C)CC)C(=O)O` [SEQ ID NO: 13, H-dSer-Q-G-T-F-T-S-D-L-S-K-Q-K(γE-x70)-D-E-E-A-A-R-L-F-I-E-W-L-Aib-A-G-G-P-S-S-G-A-P-P-P-S-NH2] are 2.54 nM, 0.0027 nM and 0.0068 nM.

For the origin of these results see patent US9758561B2 (priority 2014, dated 2017).
